Where a name gives a salt, the structure may show the parent alone.
Key:
[1] = biological target: T1, DPP-IV from porcine kidney (Sus scrofa, UniProt P22411); assay: In vitro DPP IV inhibition measurement (fluorimetric, Gly-Pro-AMC substrate); format: biochemical; conditions: 50 μM Gly-Pro-AMC, pH 8, 30° C.
T1 construct: DPP-IV from porcine kidney (D-7052); purchased Sigma Chemical Company, USA D-7052; host or cells: porcine kidney (tissue-derived)
Description: DPP-IV from porcine kidney (D-7052) and the substrate Gly-Pro-7-amido-4-methylcoumar0in hydrobromide (Gly-Pro-AMC, G2761) were obtained from Sigma Chemical Company, USA. Stock solutions of test compounds were prepared in dimethylsulfoxide. DPP IV enzyme cleaves the peptide substrate Gly-Pro-AMC leading to the formation of AMC, which is highly fluorescent. Molecules that inhibit DPP IV prevent or reduce the liberation of AMC from the substrate. The ability of test compounds to inhibit DPP IV was measured fluorimetrically by monitoring the formation of AMC. The assay was carried out in 20 mM Tris.HCl, pH 8 buffer. Test compounds were incubated with the enzyme (5 mU/100 μl) in a 96-well black flat bottom microtiter plate (Greiner bio-one, Germany) for 20 minutes at 30° C. and the reaction was initiated by the addition of 50 μM Gly-Pro-AMC. After 30 minutes incubation at 30° C., the fluorescence at 460 nm was measured (λex=360 nm) in a Spectramax Gemini spectrofluorimeter (Molecular Devices, USA). IC50, the concentration of compound required to inhibit 50% of enzyme activity was determined and the compounds were rated accordingly. For the IC50 determination, non-linear fitting of the dose-response curves were carried out using Kaleidagraph v3 software. LAF237 [Novarti's vildagliptin is a new class of oral antidiabetic agents known as dipeptidyl peptidase IV inhibitors (DPP-IV) inhibitors] was used as the standard inhibitor for the assay.

Plasma DPP-IV activity = biological target: T2, Plasma DPP-IV activity (Rattus norvegicus, UniProt P14740); assay: In vivo efficacy study in rat: plasma DPP-IV activity after oral dosing; conditions: 3 mg/kg oral, male wistar rats, measured at 20 min after glucose challenge
T2 construct: from tissue; host or cells: plasma of orally dosed male Wistar rats
T2 sequence (P14740 37-767 limits assumed): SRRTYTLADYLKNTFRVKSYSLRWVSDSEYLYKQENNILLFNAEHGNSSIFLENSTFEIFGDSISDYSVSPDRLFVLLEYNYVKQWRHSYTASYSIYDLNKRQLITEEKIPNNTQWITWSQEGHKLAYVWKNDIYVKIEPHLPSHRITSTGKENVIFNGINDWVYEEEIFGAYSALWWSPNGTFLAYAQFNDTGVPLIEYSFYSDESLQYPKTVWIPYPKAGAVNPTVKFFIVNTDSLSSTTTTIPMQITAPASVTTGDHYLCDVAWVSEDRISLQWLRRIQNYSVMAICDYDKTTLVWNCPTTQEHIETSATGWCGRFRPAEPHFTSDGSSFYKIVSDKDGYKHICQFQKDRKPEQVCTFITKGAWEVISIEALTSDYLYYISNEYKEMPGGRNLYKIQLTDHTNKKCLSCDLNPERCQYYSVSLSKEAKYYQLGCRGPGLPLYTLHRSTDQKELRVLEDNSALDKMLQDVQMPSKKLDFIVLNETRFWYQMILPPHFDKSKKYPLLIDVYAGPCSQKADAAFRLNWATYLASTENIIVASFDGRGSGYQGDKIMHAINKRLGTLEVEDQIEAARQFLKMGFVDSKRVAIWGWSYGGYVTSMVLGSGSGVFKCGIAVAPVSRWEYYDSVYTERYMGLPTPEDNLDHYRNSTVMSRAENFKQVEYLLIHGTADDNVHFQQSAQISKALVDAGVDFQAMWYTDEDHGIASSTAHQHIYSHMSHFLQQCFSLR
Description: DPP-IV from porcine kidney (D-7052) and the substrate Gly-Pro-7-amido-4-methylcoumar0in hydrobromide (Gly-Pro-AMC, G2761) were obtained from Sigma Chemical Company, USA. Stock solutions of test compounds were prepared in dimethylsulfoxide. DPP IV enzyme cleaves the peptide substrate Gly-Pro-AMC leading to the formation of AMC, which is highly fluorescent. Molecules that inhibit DPP IV prevent or reduce the liberation of AMC from the substrate. The ability of test compounds to inhibit DPP IV was measured fluorimetrically by monitoring the formation of AMC. The assay was carried out in 20 mM Tris.HCl, pH 8 buffer. […] After 30 minutes incubation at 30° C., the fluorescence at 460 nm was measured (λex=360 nm) in a Spectramax Gemini spectrofluorimeter (Molecular Devices, USA). […]
Male wistar rats were divided into groups of 6, fasted for approximately 16-18 hours before the experiment, and dosed orally with 0.3, 1, 3 and 10 mg/kg of the test compounds in carboxymethylcellulose (CMC) or Tween 80. […] Blood samples obtained at various time points from chronic jugular vein catheters/retro orbital bleed were analyzed for plasma glucose and plasma DPP-IV activity. Measurement of Plasma glucose was carried out using Merckotest Glucose kit (GOD-POD method, Merck) in Selectra Clinical Chemistry analyzer, and area under the curve (AUC) for glucose (0-120 min) was calculated. […]

Male wistar rats = assay: In vivo efficacy study in rat: oral glucose tolerance (plasma glucose); conditions: 3 mg/kg oral, 2 g/kg oral glucose, measured at 20 min after glucose challenge
Description: Male wistar rats were divided into groups of 6, fasted for approximately 16-18 hours before the experiment, and dosed orally with 0.3, 1, 3 and 10 mg/kg of the test compounds in carboxymethylcellulose (CMC) or Tween 80. After 30 min of test compound dosing, an oral glucose bolus of 2 g/kg was administered directly into the stomach of the test animals. Blood samples obtained at various time points from chronic jugular vein catheters/retro orbital bleed were analyzed for plasma glucose and plasma DPP-IV activity. Measurement of Plasma glucose was carried out using Merckotest Glucose kit (GOD-POD method, Merck) in Selectra Clinical Chemistry analyzer, and area under the curve (AUC) for glucose (0-120 min) was calculated. Plasma DPP-IV activity was measured as described above (Example-64), using 2 μl plasma for every reaction.

Zucker fa/fa fatty rats = assay: In vivo efficacy in genetic models: oral glucose challenge in Zucker fa/fa rats; parameters: species or system rat; conditions: 3 mg/kg
Description: (a) Zucker fa/fa rats Zucker fa/fa fatty rats were obtained from IffaCredo, France. The animals were maintained under 12 hour light and dark cycle at 24+/−2° C., given standard laboratory chow (NIN, Hyderabad, India) and water, ad libitum. The test compound (Example-4) was administered at 3 mg/kg dose to overnight fasted animals. The control animals received the vehicle (0.2% tween 80, dosed at 1 ml/kg) orally. Thirty minutes after administration of test compound, 2 g/kg glucose at 5 ml/kg was administered by oral gavage. Blood samples were collected at 0 (prior to compound administration), 7, 20, 40, 60 and 120 min after glucose challenge, for estimation of plasma glucose and insulin levels, and DPP-IV activity. Additional blood samples were collected in chilled EDTA tubes and immediately DPP-IV inhibitor (Linco Research, USA) was added to achieve final concentration of 10 μl/mL of blood to estimate GLP-1 levels. Blood samples were centrifuged and separated plasma samples were stored at −20° C. until analysis. Plasma DPP-IV activity and glucose levels were measured as described above (Example-65). Insulin and GLP-1 levels were measured using ELISA kits, as per manufacturer's procedures (Linco Research, USA). […] There was a 7-fold increase in GLP-1 levels at 7 min and 6-fold increase in insulin levels at 15 min after glucose challenge.

[2] = tested on: Male C57BL/KsJ-db/db mice; assay: In vivo efficacy in genetic models: oral glucose challenge in db/db mice; conditions: 3 mg/kg
Description: (b) db/db mice Male C57BL/KsJ-db/db mice of 8 to 14 weeks age, having body weight in the range of 35 to 60 grams, bred at Discovery Research, Dr. Reddy's Laboratories, were used in the experiment. The animals were maintained under 12 hour light and dark cycle at 24+/−2° C., given standard laboratory chow (NIN, Hyderabad, India) and water, ad libitum. The test compound (Example-4) was administered at 3 mg/kg dose. The control animals received the vehicle (0.2% Tween 80, dosed at 10 ml/kg) through oral gavage. 30 minutes after administration of test compound, 1.5 g/kg glucose at 10 ml/kg was administered by oral gavage. Blood samples were collected at 0 (prior to compound administration), 15, 30, 60 and 120 min after glucose challenge for estimation of plasma glucose levels, insulin and DPP-IV activity. Blood samples (0, 7, 15 min) from a satellite group of animals were collected in chilled EDTA tubes and immediately DPP-IV inhibitor (Linco Research) was added to achieve final concentration of 10 μl/mL of blood to estimate GLP-1 levels. Blood samples were centrifuged and separated plasma was stored at −20° C. until analysis. Glucose, Insulin and GLP-1 levels, and plasma DPP-IV activity were measured as described above (Example-66). Compound (Example-4) reduced the glucose levels by 58%. There was 16-fold increase in GLP-1 levels at 7 min and 5.4-fold increase in insulin levels at 15 min after glucose challenge.

[3] = at 7 min after glucose challenge
[4] = at 15 min after glucose challenge

T1 sequence (P22411 whole entry): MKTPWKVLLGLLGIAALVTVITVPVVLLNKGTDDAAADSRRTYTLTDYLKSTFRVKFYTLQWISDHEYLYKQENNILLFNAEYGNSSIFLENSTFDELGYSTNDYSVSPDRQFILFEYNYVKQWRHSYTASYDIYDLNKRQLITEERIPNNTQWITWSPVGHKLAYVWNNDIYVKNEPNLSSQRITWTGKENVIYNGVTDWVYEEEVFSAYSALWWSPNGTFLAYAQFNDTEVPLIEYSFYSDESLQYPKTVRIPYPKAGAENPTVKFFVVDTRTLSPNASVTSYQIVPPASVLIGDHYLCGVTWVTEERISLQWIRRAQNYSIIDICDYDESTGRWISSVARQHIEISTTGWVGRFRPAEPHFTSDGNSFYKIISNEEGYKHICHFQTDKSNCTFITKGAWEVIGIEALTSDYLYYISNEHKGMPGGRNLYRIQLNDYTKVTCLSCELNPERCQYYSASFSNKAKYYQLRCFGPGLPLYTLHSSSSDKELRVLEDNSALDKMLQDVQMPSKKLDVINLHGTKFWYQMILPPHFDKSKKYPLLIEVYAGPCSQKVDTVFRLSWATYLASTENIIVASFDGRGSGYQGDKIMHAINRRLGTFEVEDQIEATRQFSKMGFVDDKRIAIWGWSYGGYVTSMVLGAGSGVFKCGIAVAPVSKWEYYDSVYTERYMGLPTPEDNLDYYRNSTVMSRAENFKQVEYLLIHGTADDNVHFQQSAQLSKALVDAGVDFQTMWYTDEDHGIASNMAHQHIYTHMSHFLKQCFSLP

| Compound | IC50 [1] [nM] | other results |
| --- | --- | --- |
| N#Cc1ccc(Oc2ccc3[nH]cc(C[C@H](N)C(=O)N4CSC[C@@H]4C#N)c3c2)nc1 [Example 33, (S,S) 6-{3-[2-Amino-3-(4-cyano-thiazolidin-3-yl)-3-oxo-propyl]-1H-indol-5-yloxy}-nicotinonitrile. Trifluoroacetic acid salt] | 3.5 |  |
| N#C[C@@H]1CCCN1C(=O)[C@@H](N)Cc1c[nH]c2ccc(Oc3ccc([N+](=O)[O-])cn3)cc12 [Example 4, Trifluoroacetic acid salt] | 1.32 | inhibition at 3 mg/kg (Plasma DPP-IV activity): 90%; % Glucose reduction (Male wistar rats): 34%; reduction in glucose (Zucker fa/fa fatty rats; 2 g/kg oral glucose 30 min after compound): 55%; increase in GLP-1 levels (Zucker fa/fa fatty rats; [3]): 7 fold; increase in insulin levels (Zucker fa/fa fatty rats; [4]): 6 fold; reduced the glucose levels ([2]; 1.5 g/kg oral glucose 30 min after compound): 58%; increase in GLP-1 levels [2, 3]: 16 fold; increase in insulin levels [2, 4]: 5.4 fold |
| N#Cc1ccc(Oc2ccc3[nH]cc(C[C@H](N)C(=O)N4CCC[C@H]4C#N)c3c2)nc1 [Example 6, (S,S) 6-{3-[2-Amino-3-(2-cyano-pyrrolidin-1-yl)-3-oxo-propyl]-1H-indol-5-yloxy}-nicotinonitrile. Trifluoroacetic acid salt] | 5.5 |  |
| N#C[C@H]1CSCN1C(=O)[C@@H](N)Cc1c[nH]c2ccc(Oc3ccc([N+](=O)[O-])cn3)cc12 [Example 35, (S,S) 3-{2-Amino-3-[5-(5-nitro-pyridin-2-yloxy)-1H-indol-3-yl]-propionyl}-thiazolidine-4-carbonitrile. Trifluoroacetic acid salt] | 3.7 |  |
| N#Cc1cccnc1Oc1ccc2[nH]cc(C[C@H](N)C(=O)N3CSC[C@@H]3C#N)c2c1 [Example 32, (S,S) 2-{3-[2-Amino-3-(4-cyano-thiazolidin-3-yl)-3-oxo-propyl]-1H-indol-5-yloxy}-nicotinonitrile. Trifluoroacetic acid salt] | 6.3 |  |

Now from value to compound, other results behind:

| IC50 [1] [nM] | Compound | other results |
| --- | --- | --- |
| 8.9 | N#Cc1cccnc1Oc1ccc2[nH]cc(C[C@H](N)C(=O)N3C[C@@H](F)C[C@H]3C#N)c2c1 [Example 27, (S,S,S) 2-{3-[2-Amino-3-(2-cyano-4-fluoro-pyrrolidin-1-yl)-3-oxo-propyl]-1H-indol-5-yloxy} nicotinonitrile. Trifluoroacetic acid salt] |  |
| 4.7 | N#Cc1ccc(Oc2ccc3[nH]cc(C[C@H](N)C(=O)N4C[C@@H](F)C[C@H]4C#N)c3c2)nc1 [Example 30, (S,S,S) 6-{3-[2-Amino-3-(2-cyano-4-fluoro-pyrrolidin-1-yl)-3-oxo-propyl]-1H-indol-5-yloxy}-nicotinonitrile. Trifluoroacetic acid salt] |  |
| 1.82 | N#C[C@@H]1CCCN1C(=O)[C@@H](N)Cc1c[nH]c2ccc(Oc3ccc([N+](=O)[O-])cc3)cc12 [Example 12] | inhibition at 3 mg/kg (Plasma DPP-IV activity): 74%; % Glucose reduction (Male wistar rats): 22% |
| 2.8 | N#C[C@H]1CSCN1C(=O)[C@@H](N)Cc1c[nH]c2ccc(Oc3ccc([N+](=O)[O-])cc3)cc12 [Example 34, Trifluoroacetic acid salt] |  |
| 1.5 | N#C[C@@H]1C[C@H](F)CN1C(=O)[C@@H](N)Cc1c[nH]c2ccc(Oc3ccc([N+](=O)[O-])cc3)cc12 [Example 28, Trifluoroacetic acid salt] |  |

From patent US20090149504A1, “Novel 5-Substituted Indole Derivatives As Dipeptidyl Peptidase IV (DPP-IV) Inhibitors” (AURIGENE DISCOVERY TECHNOLOGIES LIMITED, priority 2005, published 2009)
